According to US9969715B2, “Compounds useful for treating cancer” (ABIVAX, priority 2012, dated 2018):
Where two headings read alike, the source gives them in different places.

Columns and labels:
[1] = test system: MDA-MB231-luc-D3H2LN cells; assay: Toxicity assay under normal cell culture conditions (MTS), MDA cells; format: cell-based, human; conditions: for MDA tox: 50% tox. at (μM) av: MDA-MB231-luc-D3H2LN cells, MEM+10% FBS, 72 h incubation, MTS; for toxicity on MDA-MB231 compared to comparative compound (in words): 1 vs C88 (112), 3 vs 583, 4 vs 585
Procedure, shortened: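 Under normal culture conditions (MEM with 10% FBS), MDA-MB231-luc-D3H2LN cells (2000/well) were exposed to compound concentration series for 72 h. Viability measured by MTS assay. Value is the concentration giving 50% toxicity.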

human PBMC = assay: Toxicity assay under normal cell culture conditions (MTS), PBMC; format: cell-based; conditions: for PBMC tox.: 50% tox. at (μM) av: human PBMC, RPMI+10% FBS+IL-2, 72 h incubation, MTS; for toxicity on PBMC compared to comparative compound (in words): 1 vs C88 (112), 3 vs 583, 4 vs 585
Procedure, shortened: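 Human PBMC (75000/well) in RPMI + 10% FBS + IL-2 were exposed to compounds for 72 h, with viability read by MTS. Concentration-response curves gave the concentration producing 50% toxicity.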

[2] = test system: MDA-MB231-luc-D3H2LN cells; assay: Invasion of MDA-MB231-D3H2LN cells into collagen (example 15 = procedure 2, 48 h drug pre-incubation); format: cell-based; conditions: for anti-invasive activity (in words): second set of experiments, procedure 2 (example 15)
Procedure, shortened: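 Cells embedded at the bottom of collagen gels were pre-treated 48 h with compound in 0.025% FBS, then stimulated with 5% FBS for 24 h at 37° C. Nuclei were imaged at 0, 25 and 50 µm to give mean invasion distance, with MTS viability also measured. Value is the concentration giving 50% of the effect of 10 µM Y-27632.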

[3] = test system: MDA-MB231-luc-D3H2LN cells; assay: Viability (MTS) assay on the cells in collagen under invasion assay conditions; format: cell-based, human; conditions: loss of viability at the concentration giving 0.5 × effect of 10 μM Y-27632, invasion assay conditions
Procedure, shortened: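 Run on cells embedded in collagen after a further 24 h, on serum-starved cells and in parallel on cells in 10% FBS. MTS reagent 3–4 h at 37 °C, absorbance at 490 nm; background-corrected signals expressed as % of untreated control.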

hERG channel = target: T1, hERG channel (Homo sapiens, UniProt Q12809); assay: hERG channel inhibition (electrophysiology, hERG-transfected HEK293 cells); format: cell-based; conditions: for % hERG inhibition in transfected HEK (n = 3) at 1 μM av: 1 μM compound; for % hERG inhibition in transfected HEK (n = 3) at 10 μM av: 10 μM compound; for hERG inhibition compared to comparative compound (in words): 1 vs C88 (112), 3 vs 583, 4 vs 585
T1 construct: host or cells: HEK293
Method: Performed by Porsolt & Partners (Z. A. de Glatigné, 53940 Le Genest-Saint-Isle, France). Briefly, each 3 hERG-transfected HEK293 cells were superfused with the compounds at 1 and 10 μM, and the hERG channel current was measured by electrophysiology, as described by Crumb et al., J. Pharmacol. Exp. Ther. 2000.

[4] = test system: MDA-MB231-luc-D3H2LN cells; assay: Invasion of MDA-MB231-D3H2LN cells into collagen (procedure 1, 24 h drug incubation); format: cell-based, human; conditions: for anti-invasive activity (in words): first set of experiments, procedure 1; for Invasion av.: number of cells per valid field at 50 μm, fold inhibitory effect compared to 10 μM Y-27632: procedure 1, first set of experiments
Method: It is to be noted that both Procedures 1 and 2 are invasion assays to test effect of drug compounds on invasion. They are both fully identical except for the time of incubation with the drug.
Here, invasion (into collagen) is the number of cells per valid field at 50 μm fold inhibitory effect compared to 10 μM Y-27632.
Standard Operating Procedure 1:
Said procedure is as described in example 15 except with respect to (i) the last step during day 1 “preparation of the invasion assay” and “treatment with the drugs” and days 2 and 3 which are detailed hereinafter and (ii) the fact that no concentration nor toxicity is determined at the end.
add each 33 μl/well of the 4× concentrated drug solutions in MEM+0.1% FBS to the corresponding wells in all three plates, according to the plate maps above
incubate 24 h at 37° C./5% CO2
The analysis as performed in day 5 in example 15 is performed exactly under the same conditions in day 3 in the framework of the present procedure 1.

[5] = Homo sapiens, procedure 2, second set of experiments, read-out: Invasion Av.: concentration of the compound necessary to reach 50% of the inhibition effect compared to 10 μM Y-27632
[6] = concentration giving 50% of the anti-invasive effect of 10 μM Y-27632, 48 h pre-incubation, 24 h with 5% FBS, read-out: MDA: Inhib. of invasion: 0.5 × eff. of 10 μM Y-27632 at (μM) av

T1 sequence (Q12809 whole entry): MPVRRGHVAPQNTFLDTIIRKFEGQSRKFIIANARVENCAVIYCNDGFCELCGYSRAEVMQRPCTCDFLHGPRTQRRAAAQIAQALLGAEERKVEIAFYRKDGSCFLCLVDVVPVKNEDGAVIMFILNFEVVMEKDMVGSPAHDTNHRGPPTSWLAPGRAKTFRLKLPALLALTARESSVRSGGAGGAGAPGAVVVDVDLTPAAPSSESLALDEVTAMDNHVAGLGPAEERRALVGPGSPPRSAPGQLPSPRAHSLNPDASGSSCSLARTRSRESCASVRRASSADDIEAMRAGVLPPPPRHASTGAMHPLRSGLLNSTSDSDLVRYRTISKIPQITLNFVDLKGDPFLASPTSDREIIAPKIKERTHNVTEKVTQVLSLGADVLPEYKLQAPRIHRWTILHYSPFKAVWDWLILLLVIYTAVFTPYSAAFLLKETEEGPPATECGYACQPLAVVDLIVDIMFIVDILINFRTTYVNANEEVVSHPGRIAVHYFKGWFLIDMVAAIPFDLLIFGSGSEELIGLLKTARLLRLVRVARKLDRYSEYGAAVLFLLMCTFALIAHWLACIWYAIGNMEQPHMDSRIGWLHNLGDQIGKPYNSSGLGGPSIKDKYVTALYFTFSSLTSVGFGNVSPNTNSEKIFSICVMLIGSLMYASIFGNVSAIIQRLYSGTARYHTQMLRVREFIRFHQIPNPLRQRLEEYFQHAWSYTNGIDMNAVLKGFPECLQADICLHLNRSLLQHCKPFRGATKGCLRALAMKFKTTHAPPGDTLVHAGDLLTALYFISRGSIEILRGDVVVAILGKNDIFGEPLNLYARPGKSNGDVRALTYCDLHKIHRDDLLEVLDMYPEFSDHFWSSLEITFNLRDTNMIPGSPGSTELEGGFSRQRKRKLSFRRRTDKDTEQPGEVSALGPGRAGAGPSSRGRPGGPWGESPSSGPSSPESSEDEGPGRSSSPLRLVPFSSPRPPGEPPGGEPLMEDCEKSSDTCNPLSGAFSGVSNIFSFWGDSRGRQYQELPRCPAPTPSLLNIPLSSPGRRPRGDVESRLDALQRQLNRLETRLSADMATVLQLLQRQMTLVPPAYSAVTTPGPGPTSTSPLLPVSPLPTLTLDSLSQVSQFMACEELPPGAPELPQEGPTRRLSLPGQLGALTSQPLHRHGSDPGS

IC50 [2, 5]	IC50 [2, 6]	Compound	MDA tox: 50% tox. at (μM) av [1]	PBMC tox.: 50% tox. at (μM) av (human PBMC)	anti-invasive activity (in words) [2]	(+ MDA tox. under these cond.) % tox [3]	% hERG inhibition in transfected HEK (n = 3) at 1 μM av (hERG channel)	% hERG inhibition in transfected HEK (n = 3) at 10 μM av (hERG channel)	anti-invasive activity (in words) [4]	Invasion av.: number of cells per valid field at 50 μm, fold inhibitory effect compared to 10 μM Y-27632 [4]	toxicity on MDA-MB231 compared to comparative compound (in words) [1]	toxicity on PBMC compared to comparative compound (in words) (human PBMC)	hERG inhibition compared to comparative compound (in words) (hERG channel)	invasiveness inhibition compared to comparative compound (in words) ([2]; 1 vs C88 (112), 4 vs 585)
0.39 µM	0.39 µM	CCN(CC)CCCNC(=O)c1cccc(Nc2cccc(/C=C/c3ccncc3)c2)c1 [Compound C88, reference compound]	10 µM	10 µM	anti-invasive activity is detected	<10%	55%	92%	anti-invasive activity was detected	1	–	–	–	–
–	0.29 µM	O=C(NCCCN1CCOCC1)c1cccc(Nc2cccc(C(=O)Nc3ccncc3)c2)c1 [Compound 3, N-(3-morpholinopropyl)-3-((3-(pyridin-4-ylcarbamoyl)phenyl)amino)benzamide]	51 µM	51 µM	–	<10%	14%	54%	–	–	less toxic	less toxic	less hERG inhibition	–
–	1.31 µM	CCN(CC)CCCNS(=O)(=O)c1cccc(Nc2cccc(C(=O)Nc3ccncc3)c2)c1 [Compound 5, 3-((3-(N-(3-(diethylamino)propyl)sulfamoyl)phenyl)amino)-N-(pyridin-4-yl)benzamide]	68 µM	74 µM	–	<10%	1%	29%	–	–	–	–	–	–
0.13 µM	0.13 µM	CCN(CC)CCCNC(=O)c1cccc(Nc2cccc(C(=O)Nc3ccncc3)c2)c1 [Compound 1, N-(3-(diethylamino)propyl)-3-((3-(pyridin-4-ylcarbamoyl)phenyl)amino)benzamide]	46 µM	51 µM	anti-invasive activity is detected	<10%	13%	47%	–	–	less toxic	less toxic	less hERG inhibition	more potent

Further lines, the compound ahead of its results:

Compound	IC50 [2, 5]	IC50 [2, 6]	MDA tox: 50% tox. at (μM) av [1]	PBMC tox.: 50% tox. at (μM) av (human PBMC)	anti-invasive activity (in words) [2]	(+ MDA tox. under these cond.) % tox [3]	% hERG inhibition in transfected HEK (n = 3) at 1 μM av (hERG channel)	% hERG inhibition in transfected HEK (n = 3) at 10 μM av (hERG channel)	anti-invasive activity (in words) [4]	Invasion av.: number of cells per valid field at 50 μm, fold inhibitory effect compared to 10 μM Y-27632 [4]	toxicity on MDA-MB231 compared to comparative compound (in words) [1]	toxicity on PBMC compared to comparative compound (in words) (human PBMC)	hERG inhibition compared to comparative compound (in words) (hERG channel)	invasiveness inhibition compared to comparative compound (in words) ([2]; 1 vs C88 (112), 4 vs 585)
CCN(CC)CCCNC(=O)c1ccnc(Nc2cccc(C(=O)Nc3ccncn3)c2)c1 [Compound 41, N-(3-(diethylamino)propyl)-2-((3-(pyrimidin-4-ylcarbamoyl)phenyl)amino)isonicotinamide]	–	1.5 µM	≥80 µM	>100 µM	–	<10%	8%	53%	–	–	–	–	–	–
O=C(Nc1ccncc1)c1cccc(Nc2cccc(S(=O)(=O)NCCCN3CCOCC3)c2)c1 [Compound 12, 3-((3-(N-(3-morpholinopropyl)sulfamoyl)phenyl)amino)-N-(pyridin-4-yl)benzamide]	–	0.46 µM	60 µM	54 µM	–	<10%	11%	55%	–	–	–	–	–	–
CCN(CC)CCCNC(=O)c1cccc(Nc2cccc(NC(=O)c3cccnc3)c2)c1 [FMMB46.1]	–	–	–	–	–	–	–	–	no effect was observed	0.02	–	–	–	–
CCN(CC)CCCNC(=O)c1cccc(Nc2cccc(C(=O)Nc3ccncn3)c2)n1 [Compound 40, N-(3-(diethylamino)propyl)-6-((3-(pyrimidin-4-ylcarbamoyl)phenyl)amino)picolinamide]	–	0.75 µM	73 µM	>100 µM	–	<10%	26%	59%	–	–	–	–	–	–
